According to patent publication US9724328B2, “Methods and compositions for treatment of lipid storage disorders” (NEUROTROPE BIOSCIENCE, priority 2014, dated 2017):

Columns and labels:
NPC24-SV cells [1] = assay: Cholesterol accumulation by filipin staining in NPC24-SV cells; type: cell-based, Human
Description: (§1) Cells are plated in 6-well dishes and treated with the appropriate compound (dissolved in DMSO) at the indicated dose daily for 48 hrs. Control cells receive DMSO. After 48 hrs cells are transferred to cover slips with fresh compound and grown for another 24 hrs. Cover slips are collected and processed for microscopy.
(§2) Filipin: For detection of unesterified cholesterol in lysosomes, cells were fixed in formalin for 30 min at 4° C., washed 2×, 5 min in 0.9% NaCl, incubated for 45 min with 0.01% filipin in PBS at room temperature, and then washed 2×, 5 min. Fluorescence was observed using a Nikon Eclipse fluorescence microscope (Nikon, Melville, N.Y.) equipped with a CCD camera. Fluorescence signals were quantified using Nikon's imaging and quantitation software package NIS Elements, v. 3.22.

NPC3SV cells = type: cell-based, Human; conditions: FIG. 12, concentration not given
[2] = test system: human NPC1 fibroblasts (NPC1 3123); assay: Soluble vimentin levels by Western blot after fatty acid treatment; type: cell-based; conditions: for soluble vimentin in NPC1 cells: discussion statement, FIG. 5, concentration not given; for levels of soluble vimentin in cell lysates: human NPC1 fibroblasts, 50 μg/ml, 48 hours (FIG. 5 legend: 24 hrs)
Description: The human wild-type fibroblast (GM05387), NPClo fibroblast (GM09341), and NPC1 fibroblast (GM03123) cell lines were obtained from Coriell Cell Repositories (Camden, N.J.). The M12 Chinese hamster ovary (CHO) cell line and its wild-type parental line were obtained and cultured. Fibroblast cell lines were cultured in DMEM, and CHO cells were cultured in DMEM/F12 (50:50) medium, supplemented with 10% FBS, 2 mM L-glutamine, and 50 μg/ml gentamicin in a humidified incubator at 37° C. with 5% CO2.
Transfected cells were harvested with PBS containing 2 mM EDTA at 2 days post-transfection. Soluble and insoluble cell fractions were prepared as described previously. Briefly, to obtain the soluble/cytoplasmic fraction, cells were incubated on ice for 30 min in cold “phospho” buffer [150 mM NaCl, 20 mM NaF, 100 μM Na3VO4, 20 mM Hepes, pH 7.5), 1% (v/v) Igepal, 10% (v/v) glycerol, and 1 μL/20 mg tissue of protease inhibitor cocktail] and then centrifuged for 20 min at 14,000 rpm at 4° C.; the clear supernatant was frozen in aliquots at a concentration of 1 μg/μl. The pellet (insoluble fraction) was washed 3 times in ice-cold PBS containing 2 mM EDTA and then resuspended in a volume of “Triton” buffer [PBS, 1% (w/v) SDS, and 0.1% (v/v) Triton X-100] equal to the “phospho” buffer. This solution was boiled for 10 min and sonicated until the solution became clear. The protein concentration of this fraction was adjusted to 1 μg/μl according to the protein concentrations determined for the soluble/cytoplasmic fraction. Protein concentrations were determined using the fluorescamine method as we have described. 4-12% Bis-Tris precast gel (Invitrogen, Carlsbad, Calif.) and then transferred onto a Protran membrane using an XCell II apparatus (Invitrogen, Carlsbad, Calif.) according to the manufacturer's instructions. Blots were processed as described previously.

human NPC1 3123 cells = assay: Sphingolipid transport, BODIPY-LacCer staining; type: cell-based; conditions: 48 hours
Description: For filipin staining in transfected cells, cells were transfected with PKC or Rab9 using Fugene 6 according to the manufacturer's recommendations. After 48 hrs, cells were stained with filipin as we have previously described. Cells were mounted onto slides using Fluoromount-G (SouthernBiotech, Birmingham, Ala.) and analyzed on a Nikon Eclipse microscope fitted with a charge-coupled-device camera (Nikon, Melville, N.Y.). Images were acquired with MetaVue software and then deconvoluted using AutoDeblur software from AutoQuant Imaging, Inc (Troy, N.Y.). For quantitation of filipin fluorescence, cells were seeded at 3×10^5 cells/well in 6-well dishes and allowed to settle overnight, after which the medium was replaced with medium containing 10% lipoprotein deficient serum (LPDS) for 4 days. Cells were incubated with oleic/linoleic acids for 48 hours, DCPLA/DHA for 24 hrs, or diazoxide for 72 hrs before fixing and staining with filipin as we have previously described. Images were acquired using the same exposure time for all samples. Fluorescence intensity was determined using the integrated intensity function of MetaVue software; at least 150 cells were quantitated for each sample and each experiment was repeated 3 times. For analysis of sphingolipid transport, cells were incubated with oleic/linoleic acids, DCP-LA, or PMA for 48 hours before BODIPY-LacCer staining was performed as previously described.

NPC3-SV cells = assay: Stored cholesterol by filipin staining in NPC3-SV cells; type: cell-based, Human; conditions: for clearance of cholesterol (stored cholesterol levels): 48 h, FIG. 8
Description: as §1, §2

NPC cells = conditions: earlier study [5]; cited from earlier work
C57Bl6 NPC1 mice = assay: Survival of C57Bl6 NPC1 mice dosed IP twice weekly; type: in vivo, mouse
Description: A total of […] C57Bl6 NPC1 mice, mixed sex, were used. These mice were separated into 5 groups of 5 mice each, Groups 1-5.
Bryostatin 1 (purity≧95%) from Aphios (Woburn, Mass.), 1 vial 2 mg, was solubilized in a 5% DMSO, 20% Solutol and 75% Saline solution and used as the study drug. The negative (vehicle) control is a 5% DMSO, 20% Solutol and 75% Saline solution. DCP-LA from Sigma-Aldrich: 5 mg oil/vial was used as an additional in vitro active compound. Bryostatin 1 (API) was stored at or below −20° C. and formulated as needed. The formulated bryostatin 1 was stored at 2° to 8° C. for less than 24 hour(s). The DCP-LA and the vehicle controls were stored at 2°-8° C.
The stock solution of bryostatin 1 is 10 mg/ml in DMSO, which is kept at −80° C. in aliquots. The dosing formulation is made by diluting the stock first in DMSO, then adding solutol, and lastly saline—with more insoluble compounds, adding the drug stock to complete vehicle will cause the compound to come out of solution, so we make formulations stepwise. The dosing volume is always 100 μl. Mice weigh approximately 20 g.
The mice are dosed twice weekly (Mon and Thu) starting at 30 days for up to 150 days.
C57 NPC1 mice have an average life span of ˜110 days. By Day 70 mice reach an average weight of 18-22 grams. Untreated NPC1 mice develop ataxia and will begin to lose weight at ˜70 days (see FIG. 17). Ataxia (or lack of voluntary muscle control) is a clinical feature of NPC1 mice, which may be described as shaking. Treatment will be initiated at ˜30 days of age, average NPC mouse weight of 10 g. If the drug is efficacious injections will continue past day 70-80. An extension of life of about 20-30% will mean that animals will need to be treated up to day 130-150.

NPC24-SV cells [3] = assay: Glycosphingolipid accumulation by VTB staining in NPC24-SV cells; type: cell-based, Human; conditions: 0.1 nM
M12 NPC1 CHO cells = assay: Cholesterol esterification assay ([3H] oleate); type: cell-based, Chinese hamster; conditions: 50 μg/ml fatty acid for 2 days followed by expression of PKC ε
Description: The preparation of [^3H] oleate substrate and esterification assays were performed as previously described. Cells were treated with 50 μg/ml fatty acid for 2 days and then transfected with PKE α or PKC ε for 24 hrs before esterification assays. All values were generated in triplicate and normalized for total cell protein.

Q: Which results are given for CCCCCC1CC1CC1CC1CCCCCCCC(=O)O (centres unmarked) [DCP-LA, 8-[2-(2-pentyl-cyclopropylmethyl)-cyclopropyl]-octanoic acid]?
A: filipin accumulation (NPC24-SV cells [1]; NPC24-SV cells, FIG. 11, concentration not given): decrease filipin accumulation; ganglioside transport block (NPC3SV cells): release the ganglioside transport block; soluble vimentin in NPC1 cells [2]: increase of soluble vimentin; BODIPY-LacCer transport to the trans-Golgi network (human NPC1 3123 cells; 20 μM): the lipid can be seen in the TGN; clearance of cholesterol (stored cholesterol levels) (NPC3-SV cells): able to induce clearance of cholesterol

Q: Which “NPC lipid storage phenotype” value (NPC cells) does the source give for CCCCCCCCCCCCCC(=O)O[C@@H]1[C@@H](C)[C@@]2(O)[C@@H](C=C(CO)C[C@]3(O)C(=O)C(C)=C[C@@H]23)[C@@H]2C(C)(C)[C@]12OC(C)=O [PMA, phorbol-12-myristate-13-acetate] here?
A: The value was “ameliorated the NPC lipid storage phenotype”.

Q: What about the “levels of soluble vimentin” value (NPC cells) of the same molecule?
A: The value was “increased levels of soluble vimentin”.

Q: And the “BODIPY-LacCer transport to the trans-Golgi network” value (shortened to “BODIPY-LacCer transport”) (human NPC1 3123 cells; 100 nM)?
A: The value was “the lipid can be seen in the TGN”.

Q: What does the source list for CCC/C=C/C=C/C(=O)O[C@H]1/C(=C/C(=O)OC)C[C@H]2C[C@H]([C@@H](C)O)OC(=O)C[C@H](O)C[C@@H]3C[C@H](OC(C)=O)C(C)(C)[C@](O)(C[C@@H]4C/C(=C/C(=O)OC)C[C@H](/C=C/C(C)(C)[C@]1(O)O2)O4)O3 [bryostatin 1]?
A: effect in cholesterol assay (NPC24-SV cells [1]; 0.1 nM, NPC24-SV cells): no effect; cholesterol clearance (NPC24-SV cells [1]; 10 nM, NPC24-SV cells, FIG. 11): able to effect cholesterol clearance; concentration showing a positive therapeutic effect (NPC24-SV cells [1]; human NPC1 disease cells, summary of Example 2): 10 to 100 nM; age that mice lived past (C57Bl6 NPC1 mice; 10 μg/kg IP twice weekly from 30 days of age): > 100 days; age that mice lived past (C57Bl6 NPC1 mice; 20 μg/kg IP twice weekly from 30 days of age): > 100 days; age that mice lived past (C57Bl6 NPC1 mice; 30 μg/kg IP twice weekly from 30 days of age): > 100 days; effect in sphingolipid assay (NPC24-SV cells [3]): no effect; clearance of cholesterol (stored cholesterol levels) (NPC3-SV cells): able to induce clearance of cholesterol; stored cholesterol levels (NPC3-SV cells; 72 h, FIG. 9): activity in the nanomolar concentration range

Q: With CC1=NS(=O)(=O)c2cc(Cl)ccc2N1 [diazoxide] as the molecule, how does the “clearance of cholesterol (stored cholesterol levels)” value (NPC3-SV cells) read?
A: Its value is “able to induce clearance of cholesterol”.

Q: For CCCCC/C=C\C/C=C\CCCCCCCC(=O)O [linoleic acid], which “soluble vimentin in NPC1 cells” value [2] is on record?
A: The value was “increase of soluble vimentin”.

Q: And the “levels of soluble vimentin in cell lysates” value [2]?
A: The value was “significantly increases the amount of soluble vimentin”.

Q: What about the “cholesterol esterification levels over untreated cells” value (M12 NPC1 CHO cells) of the same molecule?
A: The value was ~3.5 fold.

Q: And the “BODIPY-LacCer transport” value (human NPC1 3123 cells; 2 μg/ml)?
A: The value was “the lipid can be seen in the TGN”.

Q: Which “soluble vimentin in NPC1 cells” value [2] does the source give for CCCCCCCC/C=C\CCCCCCCC(=O)O [oleic acid, cis-9-octadecenoic acid] here?
A: The value was “increase of soluble vimentin”.

Q: And the “levels of soluble vimentin in cell lysates” value [2]?
A: The value was “significantly increases the amount of soluble vimentin”.

Q: And the “cholesterol esterification levels over untreated cells” value (M12 NPC1 CHO cells)?
A: Its value is ~3.5 fold.

Q: And the “BODIPY-LacCer transport” value (human NPC1 3123 cells; 2 μg/ml)?
A: Its value is “the lipid can be seen in the TGN”.
